For 14 molecules, logP results are on record in the OPERA property sets (Mansouri et al. 2018).

A word on the logP: it is a log measure of how a compound divides between an organic and an aqueous phase.

Molecules are shown by their SMILES.

For the molecule `CN(C)C(=O)Nc1cccc(Cc2ccccc2)c1`, the logP worked out at 2.83.

Regarding `CC(C)CNC(=O)Nc1ccc(Cl)c(Cl)c1`, the logP came to 4.48.

The molecule `CCCc1ccc(NC(=O)N(C)C)cc1` returned a log partition coefficient (logP) of 2.55.

`CCCC(C)C(=O)Nc1ccc(C)c(Cl)c1` (centres undefined) showed a logP of 4.31.

`CCCC(C)(C)C(=O)Nc1ccc(Cl)cc1`: the logP was determined as 3.83.

In the case of `CCNc1nc(Cl)nc(NCC2CC2)n1`, the logP came out at 2.85.

In the case of `O=C(Cc1ccccc1)Nc1cccc(Cl)c1`, the logP amounted to 3.61.

Molecule `CCCCCC(C)Nc1nc(Cl)nc(NCC)n1` (centres undefined) gave a logP of 4.74.

`C=CC(C)C(=O)Nc1ccc(Cl)cc1Cl` (centres undefined) came in with a logP of 3.49.

`CCNc1nc(Cl)nc(NC2CCCCC2)n1` showed a logP of 3.63.

The molecule `CCNc1nc(Cl)nc(NC2CCC2)n1` showed a logP of 2.77.

As for `CNC(=O)Nc1cccc(OC)c1`, the logP came to 1.26.

In the case of `C=CCNc1nc(Cl)nc(NCC=C)n1`, the logP worked out at 2.75.

`CC1(NC(=O)Nc2ccccc2)CCCCC1` came in with a lipophilicity (logP) of 3.6.
